Measured values as given in US20240336617A1, “Substituted Bimane Compounds and Methods of Use Thereof” (THE TRUSTEES OF THE UNIVERSITY OF PENNSYLVANIA, priority 2023, published 2024).

Tests used:
[1] = biological target: T1, αS fibrils (Homo sapiens, UniProt P37840); assay: Fluorescence spectra with αS fibrils; assay type: binding; details: for turn on of fluorescence in the presence of αS PFFs: in vitro generated αS PFFs; for Stokes shift: difference between λex and λem; for λem, maximum emission wavelength: bound dye; for λem: PFF 50 μM; for Stokes shift in the presence of PFFs / emission peaks / emission maxima in the presence of PFFs: αS PFFs
T1 construct: intein-His6 (C, cleaved yes); made in house; host or cells: Escherichia coli BL21
Description: Fluorescence measurements were performed using a PTI QuantaMaster™ 40 fluorescence spectrometer. Fluorescence spectra of 10 μM probes (concentrated stock solution prepared as 10 mM in DMSO) (7b, 7c, 7d, 7e, 7f, 7g and 7h) in PBS buffer were measured by excitation at their absorbance maximum wavelength in the absence and presence of 50 μM αS fibrils (stock solution 100 μM αS fibrils in PBS buffer).
Fluorescence spectra with αS fibrils. Fluorescence measurements were performed using a PTI QuantaMaster 40 fluorescence spectrometer. Fluorescence spectra of 10 μM probes (concentrated stock solution prepared as 10 mM in DMSO) (5b-5f and 5h) in PBS buffer were measured by excitation at their absorbance maximum wavelength in the absence and presence of 50 μM αS fibrils (stock solution 100 μM αS fibrils in PBS buffer). […] FIGS. 77A-77F show fluorescence spectra of probes (5b-5f and 5h) with and without αS fibrils. Final concentrations of probes and αS fibrils were 10 μM and 50 μM, respectively. Emission spectra collected at each dye's maximum absorption wavelength. Ex/Em slit widths: 3 nm/3 nm. […] Absorbance is shown in FIG. 78A and FIG. 78B, whereas FIG. 78C and FIG. 78D show excitation spectra of probes 5j and 5k with and without αS fibrils. Final probe and fibrils concentrations were 10 μM and 50 μM, respectively. […] Emission wavelengths were 575 nm for 5j, 580 nm for 5k. Ex/Em slit widths: 3 nm/3 nm. […] Black line indicates incident light (αS fibrils without probe) and blue line indicates sample (αS fibrils with probe). Excitation at λexc=435 nm for 5j and λexc=463 nm for 5k and spectral collection (400-800 nm). Final concentrations of the probe and αS fibrils are the 100 μM. Ex/Em slit widths: 5 nm/5 nm.

[2] = Absorbance measurements (UV-Vis); details: for λabs: ACN/PBS; for Absorbance Wavelength: ACN:PBS buffer (50:50 v/v); for λabs, maximum absorption wavelength: absence of αS PFFs (−), dye 10 μM
[3] = Fluorescent quantum yield (QY) measurements; assay type: physicochemical; details: for Fluorescence QY: ACN/PBS buffer (1:1 v/v); for Fluorescence quantum yield / QY: in ACN
In short: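 Fluorescence quantum yield was measured for each dye by first recording the incident excitation light spectrum with 1 mL of solvent. JASCO Quantum Yield Software then computed QY as the dye's fluorescence intensity divided by the drop in incident light intensity between dye-absent and dye-present samples. A full incident excitation spectrum with this setup needs an excitation wavelength of at least 360 nm.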

[4] = tested on: αS fibrils versus tau fibrils; assay: Amyloid selectivity by plate reader, αS versus tau fibrils; assay type: binding; parameters: fluorescence turn-on with αS relative to tau: dose or concentration left out as unconfirmed; details: for fluorescence turn on with αS relative to tau: 5 μM fibril concentrations, probe 1 μM
Description: Experiments were performed on the Tecan Spark in Greiner 96 well flat black ½ area plates using the following parameters: excitation and emission band widths 5 nm, lag time 0 μs, integration time 40 μs. A 10 mM DMSO stock solution of probes (7j-7m) and 100 μM stock of αS fibrils were used in the study described herein.

[5] = Fluorescence (emission) measurements; assay type: physicochemical; details: for Emission λem: Table S12; for maximum emission wavelength (λem): 50:50 ACN/PBS, excitation at λabs;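 for all read-outs here: fluorescence emission spectra recorded on a spectrofluorometer, with each compound excited at its own absorption maximum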
Description: The fluorescence spectrum of each derivative (150 μL) was measured on a Photon Technology International (PTI) QuantaMaster™ 40 fluorescence spectrometer by excitation at the maximum absorption wavelength for each compound.
The fluorescence spectrum of each derivative (150 μL) was measured on a Photon Technology International (PTJ) QuantaMaster™ 40 fluorescence spectrometer by excitation at the maximum absorption wavelength for each compound.

[6] = Molar absorptivity determination; assay type: physicochemical; details: for E, molar absorptivity (ε): absence of αS PFFs (−), measured at λabs;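 for all read-outs here: molar absorptivity derived from UV-Vis absorbance spectra recorded for each derivative on a spectrometer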
Description: The absorbance spectrum of each derivative (150 μL) was measured on a Thermo Scientific Genesys 150 UV-Vis spectrometer, using 50:50 ACN/PBS as a blank.
Molar absorptivity determination. […] The absorbance spectrum of each derivative (150 μL) was measured on a Thermo Scientific Genesys 150 UV-Vis spectrometer, using 50:50 ACN/PBS as a blank.

[7] = Solvatochromic measurements; assay type: physicochemical; details: organic solvents of different polarity
Description: The remaining 850 μL solution was used to obtain fluorescence images under a handheld 365 nm UV lamp.
Solvatochromic measurements. […] The remaining 850 μL solution was used to obtain fluorescence images under a handheld 365 nm UV lamp.

[8] = biological target: T1, αS fibrils; assay: Probe binding (Kd) measurements with αS fibrils; details: 100 μM αS PFFs; probe 10 nM-10 μM
Description: (§1) αS fibrils (100 μM) in PBS buffer were incubated with varying 7k, 7l, and 7m concentrations (0, 0.01, 0.1, 0.5, 1, 3, 5, 7, and 10 μM) from concentrated 10 mM DMSO stock solutions in Greiner 96 well flat black […] plates at 37° C. with shaking at 500 rpm for 15 min in an IKA MS3 control orbital shaker (Wilmington, NC, USA). After 15 min incubation, fluorescence intensity measurements were obtained with a Tecan Spark plate reader (Mannedorf, Switzerland) by excitation with λex/λem=424/570 nm for 7k, λex/λem=463/580 nm for 7l, and λex/λem=484/620 nm for 7m, using the following parameters: excitation and emission bandwidth 5 nm, delay time 0 μs, integration time 40 μs. Averages and standard deviations were calculated from at least 3 independent measurements at each probe concentration. The resulting binding curve was fit to the following equation (modified from the One site—Total, accounting for ligand depletion model) in Graphpad Prism 9 (San Diego, CA, USA), from which the Kd was determined.
Fluorescence Spectra with αS Fibrils
as §1, with “5k” for “7k, 7l, and 7m”, “with” for “with λex/λem=424/570 nm for 7k,”, “5k,” for “7l, and λex/λem=484/620 nm for 7m,”

[9] = presence of αS PFFs (+), dye 10 μM, PFFs 50 μM
[10] = 25 μM in ACN/PBS buffer (1:1 v/v), pH 7.4
[11] = ACN/PBS buffer (1:1 v/v), pH 7.4
[12] = in ACN, at maximum absorption wavelength

Compound	turn on of fluorescence in the presence of αS PFFs [1]	Stokes shift [1, 9]	λem, maximum emission wavelength [1, 9]	Stokes shift ([1]; presence of αS PFFs)	λem ([1]; presence of αS PFFs, dye 10 μM)	Stokes shift in the presence of PFFs [1]	Absorbance λmax ([2]; 25 μM in ACN)	Absorbance λmax [2, 10]	λabs [2]	Fluorescence QY [3]	Fluorescence quantum yield [3]	QY [3]	Emission λmax ([5]; 25 μM in ACN)	Emission λmax [5, 10]	maximum emission wavelength (λem) [5]	Stokes shift ([5]; ACN/PBS buffer (1:1 v/v))	Stokes shift ([5]; in ACN)	Molar Absorptivity (ε) [6, 11]	Molar Absorptivity (ε) [6, 12]	solvatochromism / environmental sensitivity [7]	also measured
Cc1c(C)n2c(/C=C/c3ccc(N(C)C)cc3)c(C)c(=O)n2c1=O [Compound 7l, (E)-3-(4-(dimethylamino)styryl)-2,5,6-trimethyl-1H,7H-pyrazolo[1,2-a]pyrazole-1,7-dione]	significant turn-on of orange fluorescence	117 nm	580 nm	117 nm	580 nm	117 nm	402 nm	418 nm	418 nm	0.5%	7.5%	about 7%	568 nm	604 nm	604 nm	186 nm	166 nm	30420 M⁻¹ cm⁻¹	24742 M⁻¹ cm⁻¹	high level of solvatochromism	emission maximum bound to αS [1]: 584 nm; emission peaks / emission maxima in the presence of PFFs [1]: 580 nm; Absorbance Wavelength ([2]; Table S14): 418 nm; λabs, maximum absorption wavelength [2]: 393 nm; Fluorescence quantum yield ([3]; Table S12): 7.5%; QY ([3]; listed as 5k): 7.5%; fluorescence turn-on with αS relative to tau [4]: 2.8 fold; fluorescence turn on with αS relative to tau [4]: 2 fold; Emission λem ([5]; 25 μM in ACN): 568 nm; E, molar absorptivity (ε) [6]: 20071 M⁻¹ cm⁻¹; emission span across solvents (solvatochromism) [7]: 490-590 nm; Kd [8]: 1450 ± 430 nM
Cc1c(C)n2c(/C=C/C=C/c3ccc(N(C)C)cc3)c(C)c(=O)n2c1=O [Compound 7m, 3-((1E,3E)-4-(4-(dimethylamino)phenyl)buta-1,3-dien-1-yl)-2,5,6-trimethyl-1H,7H-pyrazolo[1,2-a]pyrazole-1,7-dione]				136 nm	620 nm		410 nm	436 nm	436 nm	0.6%	13.5%	14%	620 nm	640 nm	640 nm	204 nm	210 nm	36689 M⁻¹ cm⁻¹	28639 M⁻¹ cm⁻¹	high levels of solvatochromism	concentration-dependent shift in the emission maximum with αS fibrils [1]: binding at multiple sites; Absorbance Wavelength ([2]; Table 11): 418 nm; fluorescence turn on with αS relative to tau [4]: 9 fold; Stokes shift ([5]; ACN/PBS): 204 nm; Kd [8]: 420 ± 250 nM
Cc1c(C)n2c(/C=C/c3ccc(N)cc3)c(C)c(=O)n2c1=O [Compound 7j, (E)-3-(4-aminostyryl)-2,5,6-trimethyl-1H,7H-pyrazolo[1,2-a]pyrazole-1,7-dione]	significant turn-on of orange fluorescence	140 nm	575 nm	140 nm	575 nm	140 nm	378 nm	385 nm		0.7%	1.5%	2%	540 nm	583 nm	583 nm	198 nm	162 nm	30834 M⁻¹ cm⁻¹	32091 M⁻¹ cm⁻¹	showed sensitivity to solvent polarity	emission peaks / emission maxima in the presence of PFFs ([1]; listed as 5j): 575 nm; Absorbance Wavelength ([2]; Table S14): 385 nm; λabs, maximum absorption wavelength [2]: 372 nm; Fluorescence quantum yield ([3]; Table S12): 1.5%; Emission λem ([5]; 25 μM in ACN): 540 nm; E, molar absorptivity (ε) [6]: 15385 M⁻¹ cm⁻¹
